Patent US6451808B1 (DepoMed, Inc., priority 2000, dated 2002)

Tested on: adult beagle dogs
Assay: Metformin-induced retrograde giant contractions (RGCs) and vomiting in beagle dogs, with or without intravenous ondansetron
Format: in vivo, dog
Experimental: Contractions of the smooth muscle of the gastrointestinal tracts of the dogs were monitored with strain gauge force transducers to permit detection of retrograde giant contractions (RGCs). The times at which either RGCs or vomiting occurred were recorded. Vomiting is always preceded by RGCs, while RGCs may also occur without vomiting and are generally thought to be an indication of nausea.

Cc1nccn1CC1CCc2c(c3ccccc3n2C)C1=O (stereo not shown) [Ondansetron, 1,2,3 ,9-Tetrahydro-9-methyl-3-[(2-methyl1-H-imidazole-1-yl)methyl]-4H-carbazol-4-one]
Time at which one RGC and vomit occurred after metformin administration (Dog A, Test 2, ondansetron 0.15 mg/kg i.v. 15 min before metformin 25 mg/kg): 179 minutes after metformin
Observations (RGCs, vomiting) (Dog A, Test 3, ondansetron 0.15 mg/kg i.v. 15 min before metformin 25 mg/kg): no RGCs or vomiting occurred
Observations (RGCs, vomiting) (Dog B, Tests 3 and 4, ondansetron 0.15 mg/kg i.v. 15 min before metformin 50 mg/kg): no RGCs or vomiting occurred
Suppression of the emetic effects of a metformin dosage (overall conclusion from the dog tests): effective in suppressing the emetic effects
